What was measured:
[1] = Enhancement ratio was calculated to determine the radiosensitization as the ratio of radiation dose required to kill similar cells in anoxia to those with the compound; at a concentration of 0.05 mM; type: functional, Cricetulus griseus
[2] = Concentration required to kill 50 % of the cells after ca. 7 days aerobic exposure.; type: functional, Cricetulus griseus
Nucleic Acid = experiment: Concentration required for 50% decrease in fluorescence of ethidium bromide bound to calf thymus DNA. at 600 nm; type: nucleic-acid assay; settings: Bos taurus
[3] = Enhancement ratio was calculated to determine the radiosensitization as the ratio of radiation dose required to kill similar cells in anoxia to those with the compound; at a concentration of 0.5 mM; type: functional, Cricetulus griseus
[4] = Concentration required to kill 50 % of the cells after ca. 7 days exposure.; type: functional, Cricetulus griseus
[5] = Cellular uptake was calculated as the ratio of intracellular and extracellular concentration in V79 hamster cells.; type: functional, Cricetulus griseus
[6] = Enhancement ratio was calculated to determine the radiosensitization as the ratio of radiation dose required to kill similar cells in anoxia to those with the compound; at a concentration of ~5 mM; type: functional, Cricetulus griseus
[7] = Enhancement ratio was calculated to determine the radiosensitization as the ratio of radiation dose required to kill similar cells in anoxia to those with the compound; at a concentration of 1.0 mM; type: functional, Cricetulus griseus
[8] = Concentration required to kill 50 % of the cells after ca. 7 days aerobic exposure; value ranges from 0.025-0.05; type: functional, Cricetulus griseus

Structure (SMILES) | C50 [2] [mM] | C50 (Nucleic Acid) [µM] | Ratio [3] | Ratio (Ci/Ce) [5] | other results
NC(=O)N/N=C/c1ccc([N+](=O)[O-])o1 [NITROFURAZONE] | 0.13 | > 1000 |  |  | Ratio [1]: 1.6
Cl.Cn1cc(NC(=O)Cn2ccnc2[N+](=O)[O-])cc1C(=O)NCCC(=N)N | >0.25 | 6.8 | 1.04 |  | 
Cn1cc(NC(=O)c2cc(NC(=O)CNC(=N)N)cn2C)cc1C(=O)NCCC(=N)N |  | 1.1 |  |  | 
Cl.Cn1cc(NC(=O)c2cc(NC(=O)c3ccc([N+](=O)[O-])o3)cn2C)cc1C(=O)NCCC(=N)N |  | 4.8 | 1.16 | 9.4 | C50 [4]: <0.01 mM
Cc1ncc([N+](=O)[O-])n1CCO [METRONIDAZOLE] | 6.5 | 3200 |  |  | Ratio [6]: 1.6
O=C(Cn1ccnc1[N+](=O)[O-])NCCO [ETANIDAZOLE] |  | 3000 |  | 0.4 | Ratio [7]: 1.55
Cn1cc(NC(=O)c2cc(NC(=O)c3cc(NC=O)cn3C)cn2C)cc1C(=O)NCCC(=N)N |  | 1.3 |  |  | 
Cl.Cn1cc(NC(=O)c2cc(NC(=O)Cn3ccnc3[N+](=O)[O-])cn2C)cc1C(=O)NCCC(=N)N | >0.25 | 16 | 1.04 | 3.6 | 
COCC(O)Cn1ccnc1[N+](=O)[O-] (stereo not drawn) [MISONIDAZOLE] | 1.3 | 2700 |  | 0.7 | 
Cl.Cn1cc(NC(=O)c2ccc([N+](=O)[O-])o2)cc1C(=O)NCCC(=N)N |  | 26 |  |  | Ratio [1]: 1.3; C50 [8]: 0.025 mM
